The text below walks through data of patent publication US20180325781A1, “FORMULATIONS FOR CONTROLLED RELEASE OF BUPIVACAINE” (Research Triangle Institute, priority 2017, published 2018).

For data set [1] the following is noted: single injection; cited from earlier work.
The nature of data set [2]: diffusion/release of free (unencapsulated) BP through hemostat matrix, dialysis method. Conditions: 1 mg free BP-HCl in 50 or 100 mg Gelfoam or Avitene; 1xPBS pH 7.2, 37° C.; over 24 hours. It is filed as physicochemical. On the procedure:
FIG. 5 is a graphical representation of the release of unencapsulated BP from matrix material. 1 mg of free BP—HCl in 0.9 wt/vol % NaCl was combined with either Gelfoam® or Avitene™ (at either 50 mg or 100 mg of matrix) and monitored for release through the matrix over time. The samples were placed in dialysis tubing and submerged in 1×PBS (pH=7.2) at 37° C.
To test the diffusion of free BP (i.e., not encapsulated in microparticles) through the hemostat, the material (i.e., free BP mixed with hemostat) was submerged in physiological media and the released BP measured over time.
In vitro release studies were performed using a dialysis method. […]
UHPLC analysis of released BP was performed on a Waters (Milford, Mass.) ACQUITY UHPLC system equipped with a PDA detector set to 205 nm to quantify BP. […]
The acid form of BP was chromatographically separated on a Waters ACQUITY BEH C18 column (1.7 μm, 2.1×50 mm) by isocratic elution with 70% phosphate buffer/30% ACN at a flow rate of 0.60 mL/min. […] Calibration standards were analyzed and the peaks corresponding to BP were integrated, plotted against the concentration, and the calibration curve was calculated by linear least-squares regression without weighting. […]

Structures are written as SMILES. Counter-ions that a name gives are not always drawn.

Regarding `CCCCN1CCCCC1C(=O)Nc1c(C)cccc1C` (stereo not drawn) [bupivacaine], in data set [1], the complete elimination is 6 to 8 h and the “time to maximum plasma drug concentration” value is 30 to 45 min.

In the case of `CCCCN1CCCCC1C(=O)Nc1c(C)cccc1C` (stereo not drawn) [free BP, bupivacaine hydrochloride monohydrate], the “release of free BP from the hemostat” value in data set [2] is given as “majority of free BP was released”.
